In US20130178609A1, “MODULAR CONSTRUCTION OF LIPOPHOSPHOLIPIDS” (Centre National de la Recherche Scientifique - CNRS, priority 2010, published 2013):
Where “and” joins values, the source holds several entries; their conditions need not be identical. Identical values can stand only once.

Assay: Fluorescence excitation/emission maxima and molar absorption of the fluorescent phospholipids in EtOH
Assay type: physicochemical

λmax,em: 425 nm and 479 nm | λmax,exc: 349 nm and 412 nm
SMILES: CCCCCCCC/C=C\CCCCCCCCOP(=O)(NCc1cn(-c2cc3ccc(O)cc3oc2=O)nn1)OCCCCCCCC/C=C\CCCCCCCC [Compound 4a]
